Reference: article PMC2096561 (2004)

Biological target: GPR80 (GPR99, proposed P2Y15) (Homo sapiens, UniProt Q96P68)
Assay: [3H]inositol phosphate accumulation in GPR80-expressing CHO and HEK293 cells
Type: cell-based

Chain of GPR80 (GPR99, proposed P2Y15) (Q96P68 whole entry): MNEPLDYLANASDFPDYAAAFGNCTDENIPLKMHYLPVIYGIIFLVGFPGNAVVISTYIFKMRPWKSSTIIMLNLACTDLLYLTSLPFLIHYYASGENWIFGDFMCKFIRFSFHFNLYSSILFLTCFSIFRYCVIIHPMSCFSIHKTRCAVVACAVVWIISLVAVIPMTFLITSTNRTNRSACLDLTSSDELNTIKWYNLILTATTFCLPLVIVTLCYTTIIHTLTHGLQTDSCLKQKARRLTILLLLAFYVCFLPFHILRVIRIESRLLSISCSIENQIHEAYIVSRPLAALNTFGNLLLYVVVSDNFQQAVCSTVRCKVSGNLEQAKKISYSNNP

O=C(O)CCC(=O)C(=O)O [α-ketoglutarate]
EC50: 140 ± 10 µM
